Test results published in US6420147B1, “Haloalkaliphilic microorganisms” (Genencor International, Inc., priority 1991, dated 2002).

Key:
Strain 103Nt.4 = assay: Antibiotic sensitivity (susceptibility test disks on Medium A agar); type: cell-based; settings: antibiotic disks (contents in Appendix C), 37° C., up to 14 days
Protocol: (§1) A light suspension of bacteria in alkaline, saline, nutrient broth was spread on the surface of alkaline nutrient, saline agar (Medium A) and allowed to dry. Commercially available antibiotic susceptibility test disks (Oxoid or Mast Laboratories: Merseyside, U.K.) were applied to the agar surface. The bacteria were cultivated at 37° C. for up to 14 days. Clear zones around the antibiotic disks indicated sensitivity and were recorded as positive.

Strain 31M.4 = assay: as above; type: cell-based; settings: antibiotic disks (contents in Appendix C), 37° C., up to 14 days
Protocol: as §1

Strain 86M.4 = assay: as above; type: cell-based; settings: antibiotic disks (contents in Appendix C), 37° C., up to 14 days
Protocol: as §1

Strain 931LM.4 = assay: as above; type: cell-based; settings: antibiotic disks (contents in Appendix C), 37° C., up to 14 days
Protocol: as §1

Strain 93dLM.4 = assay: as above; type: cell-based; settings: antibiotic disks (contents in Appendix C), 37° C., up to 14 days
Protocol: as §1

Strain 95LM.4 = assay: as above; type: cell-based; settings: antibiotic disks (contents in Appendix C), 37° C., up to 14 days
Protocol: as §1

Strain 98Nt.4 = assay: as above; type: cell-based; settings: antibiotic disks (contents in Appendix C), 37° C., up to 14 days
Protocol: as §1

[1] = test system: Cluster 1 haloalkaliphilic bacteria; assay: Antibiotic sensitivity, distribution of positive characters; type: cell-based; settings: share of strains of cluster 1 (78.5% similarity level, SSM) scored positive = clear zone around antibiotic disk; Medium A agar, 37° C., up to 14 days
Protocol: as §1

[2] = test system: Cluster 2 haloalkaliphilic bacteria; assay: as above; type: cell-based; settings: share of strains of cluster 2 (78.5% similarity level, SSM) scored positive = clear zone around antibiotic disk; Medium A agar, 37° C., up to 14 days
Protocol: as §1

[3] = test system: Cluster 3 haloalkaliphilic bacteria; assay: as above; type: cell-based, haloalkaliphilic eubacteria; settings: share of strains of cluster 3 (78.5% similarity level, SSM) scored positive = clear zone around antibiotic disk; Medium A agar, 37° C., up to 14 days
Protocol: as §1

[4] = test system: Cluster 4 haloalkaliphilic bacteria; assay: as above; type: cell-based, haloalkaliphilic eubacteria; settings: share of strains of cluster 4 (78.5% similarity level, SSM) scored positive = clear zone around antibiotic disk; Medium A agar, 37° C., up to 14 days
Protocol: as §1

SMILES	Inhibition of growth by antibiotic (Strain 103Nt.4)	Inhibition of growth by antibiotic (Strain 31M.4)	Inhibition of growth by antibiotic (Strain 86M.4)	Inhibition of growth by antibiotic (Strain 931LM.4)	Inhibition of growth by antibiotic (Strain 93dLM.4)	Inhibition of growth by antibiotic (Strain 95LM.4)	Inhibition of growth by antibiotic (Strain 98Nt.4)	Distribution of positive characters: antibiotic sensitivity, Cluster 1 [1]	Distribution of positive characters: antibiotic sensitivity, Cluster 2 [2]	Distribution of positive characters: antibiotic sensitivity, Cluster 3 [3]	Distribution of positive characters: antibiotic sensitivity, Cluster 4 [4]
CC1(C)S[C@@H]2[C@H](NC(=O)[C@H](N)c3ccccc3)C(=O)N2[C@H]1C(=O)O [ampicillin]	inhibited	inhibited	not inhibited	inhibited	inhibited	inhibited	not inhibited	0	0	100	67
CC[C@H]1OC(=O)[C@H](C)[C@@H](O[C@H]2C[C@@](C)(OC)[C@@H](O)[C@H](C)O2)[C@H](C)[C@@H](O[C@@H]2O[C@H](C)C[C@H](N(C)C)[C@H]2O)[C@](C)(O)C[C@@H](C)C(=O)[C@H](C)[C@@H](O)[C@]1(C)O [erythromycin]	not inhibited	inhibited	inhibited	inhibited	inhibited	inhibited	inhibited	86	73	100	100
CO[C@@H]1[C@@H](OC(N)=O)[C@@H](O)[C@H](Oc2ccc3c(O)c(NC(=O)c4ccc(O)c(CC=C(C)C)c4)c(=O)oc3c2C)OC1(C)C [novobiocin]	inhibited	inhibited	inhibited	inhibited	inhibited	inhibited	inhibited	100	82	33	100
[H]/N=C(/N)N[C@H]1[C@H](O)[C@@H](O)[C@H](O[C@@H]2O[C@@H](C)[C@](O)(C=O)[C@H]2O[C@@H]2O[C@@H](CO)[C@H](O)[C@@H](O)[C@@H]2NC)[C@@H](N/C(N)=N\[H])[C@@H]1O [streptomycin]	inhibited	inhibited	not inhibited	inhibited	not inhibited	not inhibited	not inhibited	0	18	67	0
